Test [1] concerns ACCase of cell line 2167-9/2160-154 H-1. Nature of the test: Herbicide inhibition of ACCase, line H-1. The test is classed as biochemical, maize. As to conditions: cell line H-1. The protocol: (§1) Maize chloroplasts, isolated as described above, were suspended in buffer C (0.1 M Tricine-KOH, pH 8.0; 0.3 M glycerol, and 1 mM DTT) and homogenized in a glass tissue homogenizer. The disrupted chloroplast fraction was centrifuged at 16,000 g for 15 minutes. The supernatant was desalted on a Sephadex G-25 column (1.5×5 cm equilibrated with 0.1 M Tricine-KOH, pH 8.0; and 0.3 M glycerol) and assayed directly. ACCase activity (B. J. Nikolau et al., Arch. Biochem. Biophys., 211, 605-612 (1981)) was assayed at 30° C. in a 0.2 ml volume which contained 1 mM ATP, 3 mM acetyl coenzyme A, 2.5 mM MgCl2, 50 mM KCl, 0.5 mM DTT, and 15 mM [^14C]NaHCO3 (0.17 mCi/mmol). Reactions were initiated by addition of acetyl coenzyme A and stopped by addition of 25 μl of 12 N HCl. Product formation was determined by the radioactivity found in an acid stable fraction by liquid scintillation spectrometry. Enzyme activity was linear for 15 minutes.
(§2) Acetyl Coenzyme A Carboxylase (ACCase) was extracted from cell lines S-1, H-1 and H-2 and assayed as described in detail for maize cell line S-2, above.

The test system of test [2] is Homozygous tolerant S3 seedlings. The experiment in a line: Foliar herbicide application, lethal rate. It is filed as in vivo, maize (Zea mays L.). As to conditions: for Lethal rates: Homozygous tolerant S3, average of two families, scored 21 days after treatment. The protocol: (§3) Foliar applications of the herbicides were made to greenhouse- or field-grown seedlings at the three- to five-leaf stage. Herbicides were applied in a spray volume of 187 l/ha that includes 2.3 l/ha crop oil concentrate to enhance uptake. Sethoxydim and haloxyfop were applied using commercial formulations (Poast from BASF Corp and Verdict from Dow Elanco, respectively). Visual observations were recorded 14-21 days after herbicide treatments.
(§4) For each mutant, two homozygous tolerant R4 families were derived from two different regenerated plants and two heterozygous F1 families were obtained from crosses of R3 homozygous tolerant lines with the susceptible inbreds A188 and A619. Sethoxydim and haloxyfop each were applied at rates ranging from 0.0034 to 7.0 kg/ha. For each genotype a five-rate doubling series was used to determine herbicide lethality. Because of the large differences between wildtype and mutants in herbicide susceptibility, the ranges of herbicide application rates were varied. Two five plant/pot replicates of each family were evaluated for each rate. Herbicide injury symptoms were scored visually 21 days after herbicide treatment. The lethal rate was considered to be the lowest application rate resulting in death of all seedlings in the four replications of each homozygous tolerant genotype or in the eight replications of the heterozygous combinations.

The subject of test [3] is Homozygous tolerant S2 seedlings. Nature of the test: Foliar herbicide application, lethal rate. It is filed as in vivo, maize (Zea mays L.). The following applies: for Lethal rates: Homozygous tolerant S2, average of two families, scored 21 days after treatment. The procedure:
as §3, §4

For test [4], the system named is Heterozygous tolerant Inbred × H1 seedlings. Nature of the test: Foliar herbicide application, lethal rate. The test is classed as in vivo, maize (Zea mays L.). The following applies: Heterozygous tolerant Inbred × H1, average of A188- and A619-derived F1 families. The procedure: as §3, §4
In test [5] the test system is Heterozygous tolerant Inbred × S3 seedlings. Nature of the test: Foliar herbicide application, lethal rate. The test is classed as in vivo, maize (Zea mays L.). The following applies: Heterozygous tolerant Inbred × S3, average of A188- and A619-derived F1 families. The procedure: as §3, §4
For test [6], the system named is Homozygous tolerant H2 seedlings. The experiment in a line: Foliar herbicide application, lethal rate. The test is classed as in vivo, maize (Zea mays L.). As to conditions: for Fold increase in tolerance compared to the wildtype: H2 seedlings; for Lethal rates: Homozygous tolerant H2, average of two families, scored 21 days after treatment. The protocol:
as §3, §4

The subject of test [7] is Homozygous tolerant H1 seedlings. The experiment in a line: Foliar herbicide application, lethal rate. It is filed as in vivo, maize (Zea mays L.). The following applies: Homozygous tolerant H1, average of two families; scored 21 days after treatment. The protocol:
as §3, §4

Test [8] has as its system Heterozygous tolerant Inbred × S2 seedlings. The experiment in a line: Foliar herbicide application, lethal rate. The following applies: Heterozygous tolerant Inbred × S2, average of A188- and A619-derived F1 families. The test is classed as in vivo, maize (Zea mays L.). The protocol:
as §3, §4

In test [9] the test system is Heterozygous tolerant Inbred × H2 seedlings. The experiment in a line: Foliar herbicide application, lethal rate. It is filed as in vivo, maize (Zea mays L.). As to conditions: Heterozygous tolerant Inbred × H2, average of A188- and A619-derived F1 families. The protocol: as §3, §4
For test [10], the system named is Wildtype (A188 and A619) seedlings. The experiment in a line: Foliar herbicide application, lethal rate. It is filed as in vivo, maize (Zea mays L.). As to conditions: average response of A188 and A619, scored 21 days after treatment. The procedure:
as §3, §4

Test [11] relates to ACCase of cell line 2167-9/2160-154 S-1. Nature of the test: Herbicide inhibition of ACCase, line S-1. As to conditions: cell line S-1. The test is classed as biochemical, maize. The procedure: as §1, §2
Test [12] has as its system tolerant cell line 2167-9/2160-154 S-2. The experiment in a line: Callus growth on herbicide medium, line S-2. The test is classed as cell-based, maize. The protocol:
Tolerant cell line 2167-9/2160-154 S-2 (“S-2”) was characterized to evaluate: (1) the magnitude of sethoxydim tolerance; (2) cross-tolerance of haloxyfop; and (3) the biochemical basis for the tolerance. Callus tissue from S-2 that had been maintained on 10 μM sethoxydim was transferred to media containing up to 100 μM sethoxydim. One-half gram of S-2 tissue was plated on a 7 cm filter paper as a lawn overlaying 50 ml agar-solidified culture medium containing 0, 0.5, 1.0, 2.0, 5.0, 10.0, 50.0 and 100 μM sethoxydim, and cultured for two weeks. Control cell line 2167-9/2160-154 was plated similarly on medium containing the same levels of sethoxydim. The control cell line growth after two weeks was inhibited 50% at 1 μM sethoxydim.

pIC50: −log10 of the molar value.

Take `CCCC(=NOCC)C1=C(O)CC(CC(C)SCC)CC1=O` (stereo not drawn) [Sethoxydim, 2-[1-(ethoxyimino)-butyl]-5-[2-(ethylthio)propyl]-3-hydroxy-2-cyclohexen-1-one]: the “Fold increase in herbicide concentration that inhibits ACCase activity by 50% vs unselected parent cell line” value in test [1] is listed as 0 fold; in test [11] it was 4 fold; in test [11] (listed as sethoxydim), “more tolerant”. Also, the Lethal rates in test [2] is reported as above 7.0 kg/ha; in test [3] it was above 7.0 kg/ha; in test [4], 0.055 kg/ha; in test [5], “≧1.8 kg/ha”; in test [6], 0.88 kg/ha; in test [7], 0.055 kg/ha. Further, the Lethal rates result in [8] is recorded as “≧1.8 kg/ha”; in test [9], 0.22 kg/ha; in [10] it was 0.055 kg/ha. For the same compound, the “Fold increase over the lethal rate for wildtype plants” value in test [2] (homozygous S3 seedlings, not killed at 7 kg/ha) is at least 127 fold; in [3] (homozygous S2 seedlings, not killed at 7 kg/ha), at least 127 fold. In addition, the “Fold increase in tolerance compared to the wildtype” value in [6] is recorded as “about 16 fold”. The “Growth of S-2 callus” value in test [12] (100 μM sethoxydim, cultured two weeks) is on record as “not inhibited”. For the same compound, the “Fold increase in tolerance of S-2 versus control callus line (growth)” value in [12] (callus growth) is “at least 100 fold”.
On to `CC(Oc1ccc(Oc2ncc(C(F)(F)F)cc2Cl)cc1)C(=O)O` (stereo not drawn) [Haloxyfop, 2-[4-[[3-chloro-5-(trifluoromethyl)-2-pyridinyl]oxy]phenoxy]-propanoic acid], for which the “Fold increase in herbicide concentration that inhibits ACCase activity by 50% vs unselected parent cell line” value in test [1] was 7 fold; in [1] (listed as haloxyfop) it was “more tolerant”; in test [11], 3 fold; in test [11] (listed as haloxyfop), “more tolerant”. Further, the Lethal rates in test [2] worked out at 0.22 kg/ha; in test [3] it was 0.22 kg/ha; in [4], 0.11 kg/ha; in test [5] it was 0.11 kg/ha; in [6], 0.22 kg/ha; in [7] it was 0.11 kg/ha. Also, the Lethal rates came out at 0.11 kg/ha in [8], 0.11 kg/ha in test [9] and 0.014 kg/ha in [10]. The “Fold increase in tolerance compared to the wildtype” value in [6] is given as “about 16 fold”. Also, the pIC50 in test [12] (Zea mays, callus growth, read-out: Herbicide concentration inhibiting growth of S-2) was 6.19. In test [12] (callus growth), the “Fold increase in tolerance of S-2 versus control callus line (growth)” value is listed as around 30 fold.

For the origin of these results see patent US6414222B1, “Gene combinations for herbicide tolerance in corn” (Regents of the University of Minnesota, priority 1993, dated 2002).
